Reference: ChEMBL document CHEMBL1201862, “PubChem BioAssay data set” (2004)
Active and inactive are the calls of the source.

Key:
[1] = tested on: HEK293; experiment: cells; settings: Homo sapiens
[2] = tested on: HEK293; experiment: cells; settings: Homo sapiens; remark: listed apart in the source
[3] = THP-1 cell cytotoxicity, dose response, cytotoxicity control for non-replicating M. tuberculosis project (AID 489025); format: functional
[4] = target: T1, Calpain-2 catalytic subunit (Sus scrofa, UniProt P43367); experiment: m-calpain protease blockers, concentration series – biochemical, fluorogenic peptide substrate, dose response (AID 1420); format: functional
T1 sequence (P43367 whole entry): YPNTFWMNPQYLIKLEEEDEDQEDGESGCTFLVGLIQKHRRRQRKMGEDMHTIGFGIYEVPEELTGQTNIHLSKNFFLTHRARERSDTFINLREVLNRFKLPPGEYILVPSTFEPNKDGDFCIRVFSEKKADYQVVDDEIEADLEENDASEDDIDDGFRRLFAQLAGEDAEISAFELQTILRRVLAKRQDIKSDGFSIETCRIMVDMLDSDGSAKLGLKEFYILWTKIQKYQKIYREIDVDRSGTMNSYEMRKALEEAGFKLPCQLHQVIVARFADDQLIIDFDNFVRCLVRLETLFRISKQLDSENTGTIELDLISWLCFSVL

[5] = fluconazole-exposed Candida albicans growth modulators – fluorescence, retest, confirmation (AID 2467); format: functional, cell-based
[6] = target: DNA dC->dU-editing enzyme APOBEC-3A (Homo sapiens, UniProt P31941); experiment: A3A deaminase inhibition for selectivity – biochemical, dose response (AID 504722); format: functional
Sequence of DNA dC->dU-editing enzyme APOBEC-3A (P31941 whole entry): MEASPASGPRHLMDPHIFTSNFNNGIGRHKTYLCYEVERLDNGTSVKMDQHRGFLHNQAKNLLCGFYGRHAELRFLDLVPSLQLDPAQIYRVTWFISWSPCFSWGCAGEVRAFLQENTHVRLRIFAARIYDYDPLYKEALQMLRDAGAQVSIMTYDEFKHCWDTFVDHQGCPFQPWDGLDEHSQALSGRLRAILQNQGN

[7] = NIH-3T3 fibroblast cytotoxicity, dose response, cytotoxicity control, cell-based, fluorescence, Alamar Blue, secondary assay (AID 2327); format: functional;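 also: NIH-3T3 mouse fibroblasts cultured with fluconazole at 8 µg/mL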
[8] = target: DNA dC->dU-editing enzyme APOBEC-3G (Homo sapiens, UniProt Q9HC16); experiment: Dose Response confirmation of small molecule APOBEC3G DNA Deaminase Inhibitors via a fluorescence-based single-stranded DNA deaminase assay. [Related pubchem assays (depositor defined):AID493012, AID493028]; format: functional
Sequence of DNA dC->dU-editing enzyme APOBEC-3G (Q9HC16 whole entry): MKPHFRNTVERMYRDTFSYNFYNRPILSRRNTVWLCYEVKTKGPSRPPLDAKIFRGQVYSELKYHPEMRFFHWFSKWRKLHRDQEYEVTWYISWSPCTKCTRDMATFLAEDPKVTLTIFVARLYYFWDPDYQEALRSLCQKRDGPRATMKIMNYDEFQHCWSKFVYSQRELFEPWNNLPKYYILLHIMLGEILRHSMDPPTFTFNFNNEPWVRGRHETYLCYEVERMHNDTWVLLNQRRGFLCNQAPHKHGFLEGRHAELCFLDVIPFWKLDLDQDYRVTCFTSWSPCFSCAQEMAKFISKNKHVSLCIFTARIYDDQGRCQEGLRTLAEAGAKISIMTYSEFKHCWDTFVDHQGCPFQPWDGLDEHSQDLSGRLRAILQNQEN

[9] = target: T2, Fatty acid synthase (Homo sapiens, UniProt P49327); experiment: inhibition of human FAS-TE enzyme activity – biochemical, endpoint fluorescence intensity, uHTS hits, dose response (AID 624327); format: functional;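 also: fluorescence from hydrolysis of an O-methyl fluorescein acyl ester substrate by the enzyme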
T2 sequence (P49327 whole entry): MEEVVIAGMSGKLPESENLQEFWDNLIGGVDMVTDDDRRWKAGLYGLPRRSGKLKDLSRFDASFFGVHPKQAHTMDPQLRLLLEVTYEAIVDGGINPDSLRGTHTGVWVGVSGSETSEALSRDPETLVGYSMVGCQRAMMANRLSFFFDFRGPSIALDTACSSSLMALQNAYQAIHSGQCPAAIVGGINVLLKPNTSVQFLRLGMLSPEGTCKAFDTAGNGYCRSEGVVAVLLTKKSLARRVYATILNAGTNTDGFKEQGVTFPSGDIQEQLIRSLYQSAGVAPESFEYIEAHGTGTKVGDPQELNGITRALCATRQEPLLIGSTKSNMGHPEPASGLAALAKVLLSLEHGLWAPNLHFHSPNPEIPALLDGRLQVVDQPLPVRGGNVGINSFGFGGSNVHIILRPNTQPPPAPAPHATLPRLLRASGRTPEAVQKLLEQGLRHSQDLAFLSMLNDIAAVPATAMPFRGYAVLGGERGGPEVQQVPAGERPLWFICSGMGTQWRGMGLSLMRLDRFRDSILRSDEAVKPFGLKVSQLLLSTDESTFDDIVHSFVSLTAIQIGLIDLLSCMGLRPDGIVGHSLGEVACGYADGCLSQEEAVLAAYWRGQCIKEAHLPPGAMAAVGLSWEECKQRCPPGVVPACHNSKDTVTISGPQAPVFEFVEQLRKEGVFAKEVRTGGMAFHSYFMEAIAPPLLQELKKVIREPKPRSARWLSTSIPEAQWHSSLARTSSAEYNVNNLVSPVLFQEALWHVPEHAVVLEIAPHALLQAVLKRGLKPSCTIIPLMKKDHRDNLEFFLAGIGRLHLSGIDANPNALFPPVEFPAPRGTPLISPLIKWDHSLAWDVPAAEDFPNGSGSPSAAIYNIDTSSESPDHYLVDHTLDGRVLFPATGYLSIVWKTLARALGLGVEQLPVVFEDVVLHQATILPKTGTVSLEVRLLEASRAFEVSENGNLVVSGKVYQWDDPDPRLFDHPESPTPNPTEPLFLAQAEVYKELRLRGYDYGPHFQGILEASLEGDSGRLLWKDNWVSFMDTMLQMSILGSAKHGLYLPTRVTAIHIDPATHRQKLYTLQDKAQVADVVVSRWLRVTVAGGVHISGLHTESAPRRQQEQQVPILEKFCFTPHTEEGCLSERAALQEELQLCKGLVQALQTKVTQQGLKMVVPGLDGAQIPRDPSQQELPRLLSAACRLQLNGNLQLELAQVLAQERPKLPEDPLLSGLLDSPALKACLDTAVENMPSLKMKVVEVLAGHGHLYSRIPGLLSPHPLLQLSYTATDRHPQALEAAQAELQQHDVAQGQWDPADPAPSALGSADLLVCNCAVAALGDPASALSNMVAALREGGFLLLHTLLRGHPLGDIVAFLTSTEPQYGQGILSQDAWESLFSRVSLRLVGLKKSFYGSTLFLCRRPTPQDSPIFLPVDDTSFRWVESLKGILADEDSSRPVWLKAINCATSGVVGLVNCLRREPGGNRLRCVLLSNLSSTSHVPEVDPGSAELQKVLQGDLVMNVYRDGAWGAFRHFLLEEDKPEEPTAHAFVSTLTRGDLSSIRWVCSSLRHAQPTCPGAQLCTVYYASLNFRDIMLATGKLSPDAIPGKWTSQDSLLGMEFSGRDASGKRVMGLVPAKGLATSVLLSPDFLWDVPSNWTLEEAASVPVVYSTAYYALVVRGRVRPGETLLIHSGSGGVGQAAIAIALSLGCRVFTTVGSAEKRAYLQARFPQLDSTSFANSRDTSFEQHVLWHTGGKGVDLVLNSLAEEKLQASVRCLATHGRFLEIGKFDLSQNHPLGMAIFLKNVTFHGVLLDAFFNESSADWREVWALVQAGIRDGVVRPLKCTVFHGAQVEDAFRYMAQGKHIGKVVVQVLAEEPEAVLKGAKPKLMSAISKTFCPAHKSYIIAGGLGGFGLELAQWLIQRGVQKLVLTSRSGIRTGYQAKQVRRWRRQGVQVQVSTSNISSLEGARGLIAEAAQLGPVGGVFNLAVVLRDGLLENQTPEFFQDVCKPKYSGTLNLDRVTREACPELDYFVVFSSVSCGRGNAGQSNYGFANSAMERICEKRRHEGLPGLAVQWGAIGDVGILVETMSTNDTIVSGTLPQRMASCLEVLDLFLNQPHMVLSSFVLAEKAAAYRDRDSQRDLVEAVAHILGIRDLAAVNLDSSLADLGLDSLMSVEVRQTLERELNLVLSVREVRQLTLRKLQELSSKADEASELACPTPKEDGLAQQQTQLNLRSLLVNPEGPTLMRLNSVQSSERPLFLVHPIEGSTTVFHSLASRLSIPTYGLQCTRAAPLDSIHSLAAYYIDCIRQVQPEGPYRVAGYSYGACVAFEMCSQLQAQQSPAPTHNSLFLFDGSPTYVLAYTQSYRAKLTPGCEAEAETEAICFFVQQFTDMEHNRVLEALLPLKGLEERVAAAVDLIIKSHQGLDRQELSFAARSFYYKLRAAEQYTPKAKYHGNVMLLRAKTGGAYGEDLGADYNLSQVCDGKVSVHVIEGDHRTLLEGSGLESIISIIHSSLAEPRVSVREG

[10] = target: T2, Fatty acid synthase; experiment: inhibition of human FAS-TE enzyme activity – biochemical, kinetic fluorescence intensity, dose response (AID 624326); format: functional;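 also: rate of fluorescence rise from hydrolysis of a fluorogenic O-methyl fluorescein ester substrate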
[11] = tested on: H9c2; experiment: cells; format: functional, cell-based; settings: Rattus norvegicus, H9c2, Myocardium;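 also: confirmatory concentration-response retest of ultra-high-throughput screening hits for modulation of myocardial damage; cell death induced by hydrogen peroxide oxidative stress; compound pretreatment for 60 min then peroxide exposure for 2 h; potency is for protecting the cells against peroxide damage rather than for killing them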
[12] = cells; format: functional, cell-based
[13] = cells; format: functional, cell-based; remark: listed apart in the source
[14] = target: T3, Corticotropin-releasing factor receptor 2/Corticotropin-releasing factor-binding protein (Homo sapiens, UniProt P24387+Q13324); experiment: activators of CRF receptor 2 with binding protein – uHTS hits, confirmation (AID 602473); format: functional; settings: read-out: EC50_Mean
T3 sequence (Q13324 whole entry): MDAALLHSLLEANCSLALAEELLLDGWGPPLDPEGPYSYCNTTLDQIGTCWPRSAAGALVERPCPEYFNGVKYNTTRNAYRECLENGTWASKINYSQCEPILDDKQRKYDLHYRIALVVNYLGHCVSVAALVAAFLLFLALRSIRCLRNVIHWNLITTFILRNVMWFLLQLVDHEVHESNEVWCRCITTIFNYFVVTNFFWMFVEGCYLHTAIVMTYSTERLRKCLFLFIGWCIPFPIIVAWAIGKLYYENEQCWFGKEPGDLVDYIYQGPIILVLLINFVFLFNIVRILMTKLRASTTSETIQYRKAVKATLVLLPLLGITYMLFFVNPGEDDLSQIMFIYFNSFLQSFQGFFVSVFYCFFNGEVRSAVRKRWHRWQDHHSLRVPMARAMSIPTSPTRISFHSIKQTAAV
T3 sequence (P24387 whole entry): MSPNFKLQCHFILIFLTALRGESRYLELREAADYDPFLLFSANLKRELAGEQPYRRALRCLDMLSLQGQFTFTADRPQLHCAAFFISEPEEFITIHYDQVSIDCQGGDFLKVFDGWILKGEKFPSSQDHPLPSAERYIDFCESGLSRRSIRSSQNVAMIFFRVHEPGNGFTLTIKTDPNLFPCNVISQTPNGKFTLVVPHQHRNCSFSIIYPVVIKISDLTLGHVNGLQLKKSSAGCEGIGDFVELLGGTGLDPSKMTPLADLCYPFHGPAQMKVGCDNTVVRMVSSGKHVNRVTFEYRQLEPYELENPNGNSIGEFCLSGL

[15] = blockers of CRF-binding protein–CRF-R2 complex – cell-based, uHTS hits, 384-well, dose response (AID 651639); format: functional, Homo sapiens; settings: read-out: IC50_Mean
[16] = target: T3, Corticotropin-releasing factor receptor 2/Corticotropin-releasing factor-binding protein; experiment: Dose Response confirmation of uHTS hits for small molecule antagonists of the CRF-binding protein and CRF-R2 receptor complex.; format: functional; settings: read-out: IC50_Mean
[17] = viability loss in CEM21 cells – cell-based, CellTiter-Glo luminescence, cherry-picked, cytotoxicity control for viral fusion inhibitor project, dose response (AID 652042); format: functional;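 also: potency for signal decrease meaning cytotoxicity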
[18] = blockers of HIV-1 ZM109 envelope-driven cell-cell fusion – HeLa effector, CEM target cells, luciferase, cherry-pick, dose response (AID 652058); format: functional, cell-based;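 also: luciferase signal from HIV-1 Env mediated cell-cell fusion of effector and target cells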
[19] = blockers of HIV-1 envelope-mediated cell-cell fusion – cherry-pick, dose response (AID 652057); format: functional, cell-based
[20] = HIV-1 AD8 envelope cell-cell fusion blockers – cherry-pick, dose response (AID 652062); format: functional, cell-based;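 also: luciferase signal from cell-cell fusion driven by HIV-1 clade B AD8 Env; potency is for inhibitors of fusion seen as a drop in luminescence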
[21] = microbe, parasite or virus in culture; format: functional; settings: Mycobacterium tuberculosis
[22] = target: FAD-linked sulfhydryl oxidase ALR (Homo sapiens, UniProt P55789); experiment: ALR-catalysed DTT oxidation blockers – biochemical, H2O2 detection, luminescence, cherry-pick, dose response (AID 493248)
Sequence of FAD-linked sulfhydryl oxidase ALR (P55789 whole entry): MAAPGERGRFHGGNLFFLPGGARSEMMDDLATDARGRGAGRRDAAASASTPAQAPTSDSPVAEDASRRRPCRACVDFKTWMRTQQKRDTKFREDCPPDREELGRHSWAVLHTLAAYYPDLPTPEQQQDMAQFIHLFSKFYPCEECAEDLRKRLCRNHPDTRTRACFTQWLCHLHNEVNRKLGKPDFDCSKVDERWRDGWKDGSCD

[23] = target: Paired box protein Pax-8 (Homo sapiens, UniProt Q06710); experiment: PAX8 transcriptional activity inhibition in RMG-I – RMG-I cells, luciferase, cherry-pick, dose response (AID 687027); format: functional, cell-based;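 also: luciferase reporter driven by Pax8 target thyroperoxidase promoter measured by SteadyGlo luminescence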
Sequence of Paired box protein Pax-8 (Q06710 whole entry): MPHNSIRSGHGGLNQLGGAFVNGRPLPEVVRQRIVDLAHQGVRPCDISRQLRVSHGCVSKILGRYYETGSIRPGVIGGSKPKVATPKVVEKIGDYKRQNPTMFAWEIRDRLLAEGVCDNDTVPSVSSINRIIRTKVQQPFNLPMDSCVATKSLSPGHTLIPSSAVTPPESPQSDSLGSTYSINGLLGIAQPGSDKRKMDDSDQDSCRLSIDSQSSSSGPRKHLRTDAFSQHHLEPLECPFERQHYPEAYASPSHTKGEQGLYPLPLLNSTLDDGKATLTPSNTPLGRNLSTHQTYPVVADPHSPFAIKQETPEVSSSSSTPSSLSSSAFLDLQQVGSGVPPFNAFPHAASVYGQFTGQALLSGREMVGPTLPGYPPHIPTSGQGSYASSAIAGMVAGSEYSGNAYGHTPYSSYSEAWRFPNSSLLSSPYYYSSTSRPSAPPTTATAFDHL

[24] = HEK-293T viability loss after treatment – luminescence, T-cell screen hits, cytotoxicity control for TCR NF-kB inhibitor project, dose response (AID 489026); format: functional, cell-based;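 also: cells exposed to compound about 14 hours before the viability readout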

## O=c1[nH]c(=O)n([C@@H]2O[C@H](CO)[C@@H](O)[C@H]2O)cc1F [5-FLUOROURIDINE]
[1]
  EC50: > 59.6 µM (inactive)
[2]
  EC50: > 59.6 µM (inactive)

## Cc1ccc2c(c1)C(=O)C(=O)N2CCCOc1ccccc1
[3]
  CC50: > 40 µM (active)

## CC1Cc2ccccc2N1C(=O)COC(=O)Cn1nnc(-c2ccccc2)n1 (stereo not given)
[4]
  IC50: 8.56 µM (not active)

## Sc1nnc(-c2ccccc2)n1/N=C/c1cccs1
[5]
  EC50: 2.56 µM (active)
[6]
  IC50: > 100 µM (inactive)
[7]
  EC50: > 160 µM (inactive)
[8]
  IC50: 1.81 µM (active)

## CC(=O)N1CCN(c2ccccc2NC(=O)c2ccc(-c3cccc([N+](=O)[O-])c3)o2)CC1
[9]
  IC50: 8.81 µM (active)
[10]
  IC50: 12.1 µM (active)
[11]
  IC50: > 79 µM (inactive)

## Cn1cccc1/C=N/n1c(S)nnc1-c1ccco1
[6]
  IC50: > 100 µM (inactive)
[8]
  IC50: 3.92 µM (active)

## N#CC1=C2SCN(c3ccccc3)CN2C(=O)CC1c1c(Cl)cccc1Cl (stereo not given)
[6]
  IC50: > 100 µM (inactive)
[8]
  IC50: 4.44 µM (active)

## Cc1cc([N+](=O)[O-])nn1CC(=O)N/N=C/c1ccccc1Br
[9]
  IC50: 10.3 µM (active)
[10]
  IC50: 7.28 µM (active)

## CCN(CC(=O)Nc1ccc2c(c1)OCCO2)CC(=O)Nc1ccc2c(c1)OCO2
[12]
  EC50: > 350 µM (not active)
[13]
  EC50: > 350 µM (not active)

## CC(C)(C)c1ccc(C(=O)NCC(=O)OCc2ccc([N+](=O)[O-])cc2)cc1
[9]
  IC50: 2.66 µM (active)
[10]
  IC50: 1.69 µM (active)

## O=C(NC(=O)c1ccccc1O)c1ccc(C(F)(F)F)cc1
[14]
  EC50: 9.51 µM (active)
[15]
  IC50: 15 µM (active)
[16]
  IC50: 4.31 µM (active)

## Cc1csc(N(C(=O)CCNC(=O)c2ccc([N+](=O)[O-])cc2)c2ccccc2)n1
[9]
  IC50: 5.73 µM (active)
[10]
  IC50: 4.74 µM (active)

## CCOC(=O)c1ccc(/N=c2\sc(C(=O)OC)cc(=O)n2CCCN2CCOCC2)cc1
[14]
  EC50: > 53 µM (inactive)
[15]
  IC50: 4.53 µM (active)
[16]
  IC50: 4.49 µM (active)

## CC(C)COc1cccc(C(=O)NNC(=O)C2COc3ccccc3O2)c1 (stereo not given)
[12]
  EC50: > 350 µM (not active)
[13]
  EC50: > 350 µM (not active)

## C[C@H](C(=O)N(C)C[C@@H]1OCc2ccccc2-c2c(n(C)c3ccccc23)C(=O)N([C@@H](C)CO)C[C@H]1C)c1ccccc1
[17]
  AC50: 22.5 µM (active)
[18]
  AC50: 12 µM (active)
[19]
  AC50: 4.94 µM (active)
[20]
  AC50: 8.67 µM (active)

## Cc1cc(OC(=O)c2cccs2)c2c3c(c(=O)oc2c1)CCCC3
[14]
  EC50: > 53 µM (inactive)
[15]
  IC50: > 20 µM (inactive)
[16]
  IC50: 16.4 µM (active)
[21]
  CC50: > 40 µM (active)

## O=C(C[C@H]1CC[C@@H](NC(=O)c2cccc(F)c2)[C@@H](CO)O1)NCc1ccc(Oc2ccccc2)cc1
[17]
  AC50: 58.1 µM (active)
[18]
  AC50: 1.21 µM (active)
[19]
  AC50: 0.525 µM (active)
[20]
  AC50: 1.2 µM (active)

## C=CCn1c(S)nnc1-c1csc(-c2ccc(OC)c(OC)c2)n1
[1]
  EC50: > 0.736 µM (active)
[2]
  EC50: > 59.7 µM (inactive)

## Cc1ccc(C)c(N2CCN(C(=O)C3CCCCN3S(=O)(=O)c3ccc(F)cc3)CC2)c1 (stereo not given)
[4]
  IC50: 7.84 µM (not active)

## COc1cccc(/C=N/n2c(S)nnc2-c2cc(C)[nH]n2)c1OC
[6]
  IC50: > 100 µM (inactive)
[22]
  AC50: 4.04 µM (active)
[8]
  IC50: 3.89 µM (active)

## COc1ccc(OC)c(-c2nnc3n2N=C(c2ccc(OC)c(OC4CCCC4)c2)CS3)c1
[23]
  AC50: 3.49 µM (active)
[24]
  IC50: 28.3 µM (inactive)

## COc1cccc(CNC(=O)COC(=O)c2cc([N+](=O)[O-])ccc2N2CCCC2)c1
[9]
  IC50: 3.18 µM (active)
[10]
  IC50: 1.23 µM (active)

## CSc1ccccc1NC(=O)COc1ccccc1C
[4]
  IC50: 8.86 µM (not active)

## Cn1c(N)c(C(=O)COC(=O)CNS(=O)(=O)c2ccc(Cl)c(Cl)c2)c(=O)n(C)c1=O
[14]
  EC50: > 53 µM (inactive)
[15]
  IC50: 9.63 µM (active)
[16]
  IC50: 30.8 µM (active)

## Cc1ccc(S(=O)(=O)c2nnn3c2nc(N2CCOCC2)c2ccccc23)cc1C
[14]
  EC50: > 53 µM (inactive)
[15]
  IC50: 7.26 µM (active)
[16]
  IC50: 5.78 µM (active)
